# Test results as given in patent US12077503B2, “Substituted cyclic amides and their use as herbicides” (FMC CORPORATION, priority 2015, dated 2024).
# Columns and labels:
# Assay type in all cases: in vivo
# [1] = system: corn (Zea mays); assay: Test A postemergence; settings: Zea mays, post-emergence, 240 h, postemergence, read-out: Corn plant response rating
# Summary of the method: (§1)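 In a loam soil and sand blend, planted seeds got a preemergence directed soil spray, and young plants at the one- to two-leaf stage, 2–10 cm high, got a postemergence application; ~10 d greenhouse hold; injury rated visually, 0 = none, 100 = complete control.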
# [2] = system: ryegrass, Italian (Italian ryegrass, Lolium multiflorum); assay: Test A postemergence; settings: Lolium multiflorum, post-emergence, 240 h, postemergence
# Summary of the method: as §1
# [3] = system: pigweed (Amaranthus retroflexus); assay: Test A postemergence; settings: Amaranthus retroflexus, post-emergence, 240 h, postemergence
# Summary of the method: as §1
# [4] = system: giant foxtail (Setaria faberii); assay: Test A postemergence; settings: Setaria faberi, post-emergence, 240 h, postemergence, read-out: Foxtail, Giant plant response rating
# Summary of the method: as §1
# [5] = system: wheat (Triticum aestivum); assay: Test A postemergence; settings: Triticum aestivum, post-emergence, 240 h, postemergence
# Summary of the method: as §1
# [6] = system: Galium (catchweed bedstraw, Galium aparine); assay: Test A postemergence; settings: Galium, post-emergence, 240 h, postemergence, read-out: Galium plant response rating
# Summary of the method: as §1
# [7] = system: ragweed (common ragweed, Ambrosia elatior); assay: Test A postemergence; settings: Ambrosia artemisiifolia, post-emergence, 240 h, postemergence
# Summary of the method: as §1
# [8] = system: Kochia (Kochia scoparia); assay: Test A postemergence; settings: Bassia scoparia, post-emergence, 240 h, postemergence, read-out: Kochia plant response rating
# Summary of the method: as §1
# [9] = system: barnyardgrass (Echinochloa crus-galli); assay: Test A postemergence; settings: Echinochloa crus-galli, post-emergence, 240 h, postemergence, read-out: Barnyardgrass plant response rating
# Summary of the method: as §1
# [10] = system: ryegrass, Italian (Italian ryegrass, Lolium multiflorum); assay: Test A preemergence; settings: Lolium multiflorum, pre-emergence, 240 h, preemergence, 0 to 100 scale where 0 is no effect and 100 is complete control, read-out: Ryegrass, Italian plant response rating
# Summary of the method: as §1
# [11] = system: pigweed (Amaranthus retroflexus); assay: Test A preemergence; settings: Amaranthus retroflexus, pre-emergence, 240 h, preemergence, 0 to 100 scale where 0 is no effect and 100 is complete control, read-out: Pigweed plant response rating
# [12] = system: giant foxtail (Setaria faberii); assay: Test A preemergence; settings: Setaria faberi, pre-emergence, 240 h, preemergence, 0 to 100 scale where 0 is no effect and 100 is complete control, read-out: Foxtail, Giant plant response rating
# Summary of the method: as §1
# [13] = system: ragweed (common ragweed, Ambrosia elatior); assay: Test A preemergence; settings: Ambrosia artemisiifolia, pre-emergence, 240 h, preemergence, 0 to 100 scale where 0 is no effect and 100 is complete control, read-out: Ragweed plant response rating
# Summary of the method: as §1
# [14] = system: Kochia (Kochia scoparia); assay: Test A preemergence; settings: Bassia scoparia, pre-emergence, 240 h, preemergence, 0 to 100 scale where 0 is no effect and 100 is complete control, read-out: Kochia plant response rating
# Summary of the method: as §1
# [15] = system: barnyardgrass (Echinochloa crus-galli); assay: Test A preemergence; settings: Echinochloa crus-galli, pre-emergence, 240 h, preemergence, 0 to 100 scale where 0 is no effect and 100 is complete control, read-out: Barnyardgrass plant response rating
# Summary of the method: as §1
# [16] = 125 g ai/ha, visual injury on 0 to 100 scale (0 no effect, 100 complete control), approx. 10 d
# [17] = 500 g ai/ha, 0 to 100 scale, 0 is no effect, 100 is complete control
compound,measurement,setting,value
O=C1NC[C@H](c2ccc(F)c(OC(F)(F)C(F)F)c2)[C@H]1C(=O)Nc1ccc(F)cc1F (racemic) [Compound 1154],plant injury at 125 g/ha,[1]; [16],90%
same,plant injury at 500 g/ha,[1]; [17],90%
same,pest or weed control at 125 g/ha,"[2]; 125 g ai/ha, visual injury vs untreated controls after approx. 10 d, 0 = no effect, 100 = complete control, read-out: Ryegrass, Italian plant response rating (0 to 100 scale)",30%
same,pest or weed control at 500 g/ha,"[2]; 500 g ai/ha, 0 to 100 scale, 0 is no effect, 100 is complete control, read-out: Ryegrass, Italian plant response rating",50%
same,pest or weed control at 125 g/ha,"[3]; 125 g ai/ha, visual injury vs untreated controls after approx. 10 d, 0 = no effect, 100 = complete control, read-out: Pigweed plant response rating (0 to 100 scale)",60%
same,pest or weed control at 500 g/ha,"[3]; 500 g ai/ha, 0 to 100 scale, 0 is no effect, 100 is complete control, read-out: Pigweed plant response rating",70%
same,pest or weed control at 125 g/ha,[4]; [16],90%
same,pest or weed control at 500 g/ha,[4]; [17],60%
same,plant injury at 125 g/ha,"[5]; 125 g ai/ha, visual injury vs untreated controls after approx. 10 d, 0 = no effect, 100 = complete control, read-out: Wheat plant response rating (0 to 100 scale)",40%
same,plant injury at 500 g/ha,"[5]; 500 g ai/ha, 0 to 100 scale, 0 is no effect, 100 is complete control, read-out: Wheat plant response rating",80%
same,pest or weed control at 125 g/ha,[6]; [16],60%
same,pest or weed control at 500 g/ha,[6]; [17],70%
same,pest or weed control at 125 g/ha,"[7]; 125 g ai/ha, visual injury vs untreated controls after approx. 10 d, 0 = no effect, 100 = complete control, read-out: Ragweed plant response rating (0 to 100 scale)",0%
same,pest or weed control at 500 g/ha,"[7]; 500 g ai/ha, 0 to 100 scale, 0 is no effect, 100 is complete control, read-out: Ragweed plant response rating",40%
same,pest or weed control at 125 g/ha,[8]; [16],60%
same,pest or weed control at 500 g/ha,[8]; [17],60%
same,pest or weed control at 125 g/ha,[9]; [16],70%
same,pest or weed control at 500 g/ha,[9]; [17],90%
same,pest or weed control at 125 g/ha,"[10]; 125 g ai/ha, approx. 10 d",30%
same,pest or weed control at 500 g/ha,[10]; 500 g ai/ha,50%
same,pest or weed control at 125 g/ha,"[11]; 125 g ai/ha, approx. 10 d",60%
same,pest or weed control at 500 g/ha,[11]; 500 g ai/ha,80%
same,pest or weed control at 125 g/ha,"[12]; 125 g ai/ha, approx. 10 d",90%
same,pest or weed control at 500 g/ha,[12]; 500 g ai/ha,90%
same,pest or weed control at 125 g/ha,"[13]; 125 g ai/ha, approx. 10 d",20%
same,pest or weed control at 500 g/ha,[13]; 500 g ai/ha,90%
same,pest or weed control at 125 g/ha,"[14]; 125 g ai/ha, approx. 10 d",70%
same,pest or weed control at 500 g/ha,[14]; 500 g ai/ha,90%
same,pest or weed control at 125 g/ha,"[15]; 125 g ai/ha, approx. 10 d",90%
same,pest or weed control at 500 g/ha,[15]; 500 g ai/ha,90%
